Results from patent US20260070929A1, “METHODS AND COMPOSITIONS FOR MODULATING KRAS(G12D)” (Ranok Therapeutics (Hangzhou) Co. LTD., priority 2022, published 2026).
Like-named read-outs stand apart in the source and are kept apart here.

How the values were obtained:
[1] = system: ASPC1 pancreatic adenocarcinoma cells [homozygous G12D]; test: Cancer cell line proliferation (CellTiter-Glo), ASPC1; type: cell-based; conditions: 72 hr treatment, read-out: ASPC-1 CTG (EC50)
How it was run: (§1)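 Luminescent ATP read-out (CellTiter-Glo) after 72 hr drug exposure gives the EC50. Test compounds were prepared as 3-fold serial dilutions between 20 μM and 1.02 nM, with 0.5% DMSO final per well.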

[2] = system: A-427 lung carcinoma cells [heterozygous G12D]; test: Cancer cell line proliferation (CellTiter-Glo), A-427; type: cell-based; conditions: A-427 cells, 72 hr treatment, read-out: A427 CTG (EC50)
How it was run: as §1

[3] = system: AGS gastric carcinoma cells [heterozygous G12D]; test: Cancer cell line proliferation (CellTiter-Glo), AGS; type: cell-based; conditions: 72 hr treatment, read-out: AGS CTG (EC50)
How it was run: as §1

[4] = system: SW1990 pancreatic adenocarcinoma cells [homozygous G12D]; test: Cancer cell line proliferation (CellTiter-Glo), SW1990; type: cell-based; conditions: Homo sapiens, 72 hr treatment, read-out: SW1990 CTG (EC50)
How it was run: as §1

KRAS(G12D)/SOS1 = biological target: T1, KRAS(G12D)/SOS1 (Homo sapiens, UniProt P01116, G12D); test: KRAS(G12D)/SOS1 homogeneous time-resolved fluorescence (HTRF) assay; type: binding; conditions: absence of GTP; 4° C., 3 hr
T1 construct: purchased Cisbio 63ADK000CB17PEH
T1 sequence (P01116 1-188 isoform P01116-2 G12D): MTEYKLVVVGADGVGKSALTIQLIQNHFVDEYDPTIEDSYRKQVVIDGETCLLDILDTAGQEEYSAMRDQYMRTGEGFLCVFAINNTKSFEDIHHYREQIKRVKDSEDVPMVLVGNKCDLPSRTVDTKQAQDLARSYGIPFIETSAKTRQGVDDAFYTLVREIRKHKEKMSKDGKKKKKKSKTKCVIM
How it was run: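 Disruption of the KRAS(G12D)/SOS1 pairing, in the absence of GTP, was read by time-resolved FRET after a 3 hr sealed incubation at 4 °C. Test compounds spanned 20 µM down to 1.02 nM in 3-fold steps. IC50 values correspond to half-maximal inhibition.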

Structure (SMILES) | EC50 ([1]; Homo sapiens, ASPC1, 72 h) | EC50 ([2]; Homo sapiens) | EC50 ([3]; Homo sapiens) | EC50 [4] | IC50 (KRAS(G12D)/SOS1) | EC50 [1] | EC50 [2] | EC50 [3]
C#Cc1cccc2cc(O)cc(-c3ncc4c(N5CC6CCC(C5)N6)nc(OCC5(CN6CCN(CC7CCN(Cc8ccc9c(c8)CN(C(=O)c8cc(C(C)C)c(O)cc8OC)C9)CC7)CC6)CC5)nc4c3F)c12 [Compound 152] | 100 to 1000 nM | 100 to 1000 nM | < 100 nM | < 100 nM | < 100 nM |  |  | 
C#Cc1c(F)ccc2cc(O)cc(-c3ncc4c(N5CC6CCC(C5)N6)nc(OCC5(CN6CCN(CC7CCN(Cc8ccc(-n9c(C(=O)NC(C)C(F)(F)F)nnc9-c9cc(C(C)C)c(O)cc9O)cc8)CC7)CC6)CC5)nc4c3F)c12 (stereo not drawn) [Compound 153] | < 100 nM | < 100 nM | < 100 nM | < 100 nM | < 100 nM |  |  | 
C#Cc1c(F)ccc2cc(O)cc(-c3ncc4c(N5CC6CCC(C5)N6)nc(OCC5(CN6CCN(CC7CCN(Cc8ccc(-n9c(C(=O)NCC(F)(F)F)nnc9-c9cc(C(C)C)c(O)cc9O)cc8)CC7)CC6)CC5)nc4c3F)c12 [Compound 154] | < 100 nM | < 100 nM | < 100 nM | < 100 nM | < 100 nM |  |  | 
C#Cc1cccc2cc(O)cc(-c3ncc4c(N5CC6CCC(C5)N6)nc(OCC5(CN6CCN(Cc7ccc(-n8c(C(=O)NC(C)C(F)(F)F)nnc8-c8cc(C(C)C)c(O)cc8O)cc7)CC6)CC5)nc4c3F)c12 (stereo not drawn) [Compound 155] | 100 to 1000 nM | 100 to 1000 nM | 100 to 1000 nM | 100 to 1000 nM | < 100 nM |  |  | 
C#Cc1c(F)ccc2cc(O)cc(-c3nc(OC)c4c(N5CC6CCC(C5)N6)nc(OCC5(CN6CCN(CC7CCN(Cc8ccc9c(c8)CN(C(=O)c8cc(C(C)C)c(O)cc8O)C9)CC7)CC6)CC5)nc4c3F)c12 [Compound 156] | < 100 nM | 100 to 1000 nM | < 100 nM | < 100 nM | < 100 nM |  |  | 
C#Cc1cccc2cc(O)cc(-c3ncc4c(N5CC6CCC(C5)N6)nc(OCC5(CN6CCN(C(=O)C7CCN(Cc8ccc9c(c8)CN(C(=O)c8cc(C(C)C)c(O)cc8O)C9)CC7)CC6)CC5)nc4c3F)c12 [Compound 157] | 100 to 1000 nM | 100 to 1000 nM | < 100 nM | 100 to 1000 nM | < 100 nM |  |  | 
C#Cc1c(F)ccc2cc(O)cc(-c3nc(OC)c4c(N5CC6CCC(C5)N6)nc(OCC5(CN6CCN(CC7CCN(Cc8ccc(-n9c(C(=O)NC(C)C(F)(F)F)nnc9-c9cc(C(C)C)c(O)cc9O)cc8)CC7)CC6)CC5)nc4c3F)c12 (stereo not drawn) [Compound 158] | < 100 nM | < 100 nM | < 100 nM | < 100 nM | < 100 nM |  |  | 
CC(C)c1cc(C(=O)N2Cc3ccc(CN4CCC(CN5CCN(CC6(COc7nc(N8CC9CCC(C8)N9)c8cnc(-c9cc(O)cc%10ccccc9%10)c(F)c8n7)CC6)CC5)CC4)cc3C2)c(O)cc1O [Compound 159] | 100 to 1000 nM | 100 to 1000 nM | 100 to 1000 nM | 100 to 1000 nM | < 100 nM |  |  | 
C#Cc1c(F)ccc2cc(O)cc(-c3ncc4c(N5CC6CCC(C5)N6)nc(CCC5(CN6CCN(C7CCN(Cc8ccc9c(c8)CN(C(=O)c8cc(C(C)C)c(O)cc8O)C9)CC7)CC6)CC5)nc4c3F)c12 [Compound 161] | 100 to 1000 nM | 100 to 1000 nM | < 100 nM | < 100 nM | < 100 nM |  |  | 
C#Cc1c(F)ccc2cc(O)cc(-c3ncc4c(N5CC6CCC(C5)N6)nc(OCC5(CN6CCC(C7CCN(Cc8ccc(-n9c(C(=O)NC(C)C(F)(F)F)nnc9-c9cc(C(C)C)c(O)cc9O)cc8)CC7)CC6)CC5)nc4c3F)c12 (stereo not drawn) [Compound 162] | < 100 nM | < 100 nM | < 100 nM | < 100 nM | < 100 nM |  |  | 
C#Cc1c(F)ccc2cc(O)cc(-c3ncc4c(N5CC6CCC(C5)N6)nc(OCC5(CN6CCC(C7CCN(Cc8ccc9c(c8)CN(C(=O)c8cc(C(C)C)c(O)cc8O)C9)CC7)CC6)CC5)nc4c3F)c12 [Compound 163] | 100 to 1000 nM | 100 to 1000 nM | < 100 nM | < 100 nM | < 100 nM |  |  | 
Cc1cccc2cccc(-c3ncc4c(N5CC6CCC(C5)N6)nc(OC[C@@H]5C[C@H](N6CCN(Cc7ccc8c(c7)CN(C(=O)c7cc(C(C)C)c(O)cc7O)C8)CC6)CN5C)nc4c3F)c12 [Example 1] |  |  |  | 100 to 1000 nM | 100 to 1000 nM | 100 to 1000 nM | 100 to 1000 nM | 100 to 1000 nM
